According to patent US6693126B2, “Dihydroxyphenyl derivatives for hepatoprotection and treatment of liver diseases” (Choongwae Pharm. Co., Ltd., priority 2000, dated 2004):

Assays:
[1] = tested on: Liver Injuries caused by D-galactosamine in Rats; assay: Inhibitory effect against liver injuries caused by D-galactosamine in rats; type: in vivo, Rats (SD, male); conditions: D-galactosamine i.p., serum 24 h
From the text: The hepatoprotective effect of the compound of formula (1) was also identified by D-galactosamine model(see, Koji Hase et al., Biol. Pharm. Bull., 20, 4, 381-385, 1997; Jun-ichi Nagakawa et al., J. Pharmacology and Experimental Therapeutics, 264, 1, 1992; Toxicology of the Liver, Raven Press, New York, 1985). The N-acyl galactosamine resulted from the excess administration of D-galactosamine acts as a substrate for UDP-galactosamine or UDP-N-acyl galactosamine. But, the inordinate synthesis of […] and UDP-hexosamine may inhibit the binding of UTP in the liver cells and biosynthsis of UDP-glucose and UDP-galactose, which finally causes the structural and functional changes of the liver cell membranes. Consequently, it results in sporadic necrosis and the increase of ALT and AST values in blood. Since the toxicity caused by D-galactosamine looks similar to the symptoms of viral hepatitis, D-galactosamine model is also used conventionally as a model for viral hepatitis.
(§1) The degree of liver damage in the experimental animals was determined by measuring ALT and AST values in blood(see, Biol. Pharm. Bull., 20, 4, 381-385, 1997; Toxicology and Applied Pharmacology, 95, 1-11, 1988), and the hepatoprotective activity was calculated based on the following formula(see, Planta Medica, 55, 127-132, 1989). At this time, the hepatoprotective activity can also be calculated based on the same formula by replacing ALT value with AST value. [formula]
The hepatoprotective effect of the compound of the present invention was identified according to a known procedure(see, Koji Hase et al., Biol. Pharm. Bull., 20, 4, 381-385, 1997), and the protocol may be described in brief as follows.
Rats(SD, male, 180˜200 g) as the test animal were allowed in a condition of temperature 22±1° C. and relative humidity 60±5%. Feed and water were provided with no restriction while light and darkness were changed at an interval of 12 hours.
The compound of the present invention was suspended in a solvent corn oil, and this suspension was administered in a dose of 2 ml/kg. Each group included 8 test animals, and the test compound was orally administered for once per animal. After 30 minutes from the administration of the test compound, D-galactosamine solution(concentration: 200 mg/ml) in physiological saline was intraperitoneally injected in a dose of 2 ml/kg. As the control compounds, silymarin and DDB were selected.
(§2) The test animals were provided with no feed and sufficient water for 24 hours from the administration of D-galactosamine. […] This blood was centrifuged to obtain sera. ALT and AST values in the sera were measured using blood chemistry analyzer(Vitalab, Selectra II, Merck). The statistical significance for the test result of each group was examined based on Student's t-test, and the result was recognized as having a statistical significance when its P value is less than 5%.

[2] = tested on: Liver Injuries caused by Thioacetamide in Mice; assay: Inhibitory effect against liver injuries caused by thioacetamide in mice; type: in vivo, Mice (ICR, male); conditions: thioacetamide i.p., serum 24 h
From the text: The hepatoprotective effect of the compound of formula (1) was also identified by thioacetamide model(see, Masuda Yasusuke and Nakayama Nobue, Biochemical Pharmacology, 31, 17, 2713-2725, 1982; Liu Jie et al., Acta Pharmacologica Sinica, 16, 2, 97-102, 1995; Story D. L. et al., J. Tox. Environ. Health, 11, 483-501, 1983; Gomez-Lechon M. J. et al., Xenobiotica, 18, 6, 725-735, 1988) which is frequently used as an experimental model for liver injuries. This model has been established based on the phenomena that thioacetamide activated by P-450 S-oxidation inordinately increases the influx of calcium ion(Ca^++) into the liver cells, which in turn activates calcium ion-dependent phospholipase, protease and endonuclease, changes the cell frame through the calcium ion, exhausts ATP, and consequently destroys the liver cells. Thioacetamide also damages ureogenesis pathway in liver, and the metabolite of thioacetamide inhibits the transfer of RNA and makes the liver cell membranes unstable. A series of these activities results in the destruction of the liver cells, which in turn causes the increase of ALT and AST values in blood and also causes histologically the centrilobular necrosis.
as §1
The hepatoprotective effect of the compound of the present invention was identified according to a known procedure(see, Landon, E. J. et al., Biochemical Pharmacology, 35, 4, 697-705, 1986), and the protocol may be described in brief as follows.
Mice(ICR, male, 27˜35 g) as the test animal were allowed in a condition of temperature 22±1° C. and relative humidity 60±5%. Feed and water were provided with no restriction while light and darkness were changed at an interval of 12 hours.
The compound of the present invention was suspended in a solvent corn oil, and this suspension was administered in a dose of 10 ml/kg. Each group included 8 test animals, and the test compound was orally administered once per animal. After 1 hour from the administration of the test compound, thioacetamide solution(concentration: 90 mg/ml) in physiological saline was intraperitoneally injected in a dose of 1 ml/kg. As the control compounds, silymarin and DDB were selected.
as §2, with “thioacetamide.” for “D-galactosamine.”

Row | SMILES | Inhibitory Effect against Liver Injuries (%) ALT ([1]; dose 5.6 mg/kg p.o. once) [%] | Inhibitory Effect against Liver Injuries(%) AST ([1]; dose 5.6 mg/kg p.o. once) [%] | Inhibitory Effect against Liver Injuries (%) ALT ([1]; dose 16.7 mg/kg p.o. once) [%] | Inhibitory Effect against Liver Injuries(%) AST ([1]; dose 16.7 mg/kg p.o. once) [%] | Inhibitory Effect against Liver Injuries (%) ALT ([1]; dose 50 mg/kg p.o. once) [%] | Inhibitory Effect against Liver Injuries(%) AST ([1]; dose 50 mg/kg p.o. once) [%] | Inhibitory Effect against Liver Injuries (%) ALT ([2]; dose 16.7 mg/kg p.o. once) [%] | Inhibitory Effect against Liver Injuries(%) AST ([2]; dose 16.7 mg/kg p.o. once) [%] | Inhibitory Effect against Liver Injuries (%) ALT ([2]; dose 50 mg/kg p.o. once) [%] | Inhibitory Effect against Liver Injuries(%) AST ([2]; dose 50 mg/kg p.o. once) [%]
1 | CC(=O)SCC(=O)c1ccc2c(c1)OCO2 [Compound 28, 1-(benzo[3,4-d]1,3-dioxolan-5-yl)-2-acetylthioethan-1-one] | 42 | 48 | 51 | 55 | 52 | 55 | 76 | 89 | 87 | 94
2 | COC(=O)c1cc(OC)c2c(c1-c1c(C(=O)OC)cc(OC)c3c1OCO3)OCO2 [DDB, reference compound] | – | – | – | – | 28 | 12 | – | – | 21 | −4
3 | COc1cc(/C=N/OCc2ccccn2)cc2c1OCO2 [Compound 13, 6-(2-((2-pyridyl)methoxy)-2-azavinyl)-4-methoxybenzo [d]1,3-dioxolane] | 34 | – | 35 | – | 67 | – | – | – | 91 | –
4 | c1csc(-c2ccc3c(c2)OCO3)n1 [Compound 21, 2-(benzo[3,4-d]1,3-dioxolan-5-yl)-1,3-thiazole] | 27 | 29 | 32 | 29 | 56 | 46 | 54 | 37 | 98 | 98
5 | O/N=C/c1ccc2c(c1)OCO2 [Compound 1] | – | – | 5 | – | 12 | – | – | – | 99 | –
